Data taken from ChEMBL document CHEMBL1201862, “PubChem BioAssay data set” (2004).
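Interpolation was linear, between the two tested concentrations surrounding the appropriate level; five concentrations were tested over 48 hours in 96-well plates. GI50 marks 50% less growth.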 Calls of active or inactive are those of the source. Cut-off read from the data, not from the text of the source: active = GI50 up to about 1.1 µM and inactive = higher.

What was measured:
Test in all cases: NCI anticancer screen, dose series, 48 h
[1] = tested on: 786-0
[2] = tested on: A498
[3] = tested on: A549
[4] = tested on: ACHN
[5] = tested on: BT-549
[6] = tested on: CAKI-1
[7] = tested on: CCRF-CEM
[8] = tested on: COLO 205
[9] = tested on: DU-145
[10] = tested on: EKVX
[11] = tested on: HCC 2998
[12] = tested on: HCT-116
[13] = tested on: HCT-15
[14] = tested on: HL-60
[15] = tested on: HOP-62
[16] = tested on: HOP-92
[17] = tested on: HT-29
[18] = tested on: Hs-578T
[19] = tested on: IGROV-1
[20] = tested on: K562
[21] = tested on: KM12
[22] = tested on: LOX IMVI
[23] = tested on: M14
[24] = tested on: MCF7
[25] = tested on: MDA-MB-231
[26] = tested on: MDA-MB-435
[27] = tested on: MDA-N
[28] = tested on: MOLT-4
[29] = tested on: Malme-3M
[30] = tested on: NCI-H226
[31] = tested on: NCI-H23
[32] = tested on: NCI-H460
[33] = tested on: NCI-H522
[34] = tested on: NCI/ADR-RES
[35] = tested on: OVCAR-3
[36] = tested on: OVCAR-4
[37] = tested on: OVCAR-5
[38] = tested on: OVCAR-8
[39] = tested on: PC-3
[40] = tested on: RPMI-8226
[41] = tested on: RXF 393
[42] = tested on: SF-268
[43] = tested on: SF-295
[44] = tested on: SF-539
[45] = tested on: SK-MEL-28
[46] = tested on: SK-MEL-2
[47] = tested on: SK-MEL-5
[48] = tested on: SK-OV-3
[49] = tested on: SN12C
[50] = tested on: SNB-19
[51] = tested on: SNB-75
[52] = tested on: SR
[53] = tested on: SW-620
[54] = tested on: T47D
[55] = tested on: TK-10
[56] = tested on: U-251
[57] = tested on: UACC-257
[58] = tested on: UACC-62
[59] = tested on: UO-31

Measured: GI50

CN1CCN(CCCCN2c3ccccc3Sc3ccc(N=[N+]=[N-])cc32)CC1
7.36 µM: [13]
inactive: [1] 7.76 µM | [2] 13.8 µM | [3] 12.9 µM | [4] 8.65 µM | [5] 9.77 µM | [6] 7.29 µM | [7] 2.6 µM | [8] 1.86 µM | [9] 12.9 µM | [10] 13.6 µM | [11] 3.74 µM | [12] 3.72 µM | [14] 1.95 µM | [15] 15.2 µM | [16] 2.75 µM | [17] 2.07 µM | [18] 7.31 µM | [19] 7.91 µM | [20] 1.89 µM | [21] 6.22 µM | [22] 2.47 µM | [23] 2.05 µM | [24] 4.17 µM | [25] 4.3 µM | [26] 2.07 µM | [27] 2.88 µM | [28] 2.41 µM | [29] 2.43 µM | [30] 14.3 µM | [31] 17.8 µM | [32] 6.01 µM | [33] 5.01 µM | [34] 11.7 µM | [35] 8.07 µM | [36] 10.2 µM | [37] 9.55 µM | [38] 13.5 µM | [39] 4.65 µM | [40] 2.36 µM | [41] 5.16 µM | [42] 9.71 µM | [43] 12.2 µM | [44] 7.35 µM | [45] 1.84 µM | [46] 3.99 µM | [47] 2.26 µM | [48] > 10 µM | [49] 12.2 µM | [50] 13.4 µM | [51] 4.55 µM | [52] 2.58 µM | [53] 2.68 µM | [54] 14.9 µM | [55] 12.7 µM | [56] 4.95 µM | [57] 2.06 µM | [58] 2.08 µM | [59] 7.57 µM

Nc1ccc(-c2nc3cc(F)ccc3s2)cc1Br
active: [4] 0.621 µM | [8] 0.377 µM | [11] < 0.01 µM | [12] 0.0552 µM | [17] 0.368 µM | [19] < 0.01 µM | [24] < 0.0111 µM | [30] 0.0504 µM | [32] 0.0458 µM | [35] 0.0964 µM | [37] 0.0904 µM | [52] < 0.01 µM | [54] 0.038 µM | [55] 0.0306 µM
inactive: [1] 59 µM | [2] 14.7 µM | [3] 8.97 µM | [5] 7.69 µM | [6] 3.99 µM | [7] > 100 µM | [9] 55.7 µM | [10] 2.71 µM | [14] 4.71 µM | [15] 12.7 µM | [16] 29.1 µM | [18] 36.7 µM | [21] 10.4 µM | [22] > 51.2 µM | [23] > 95.5 µM | [25] 8.95 µM | [26] > 100 µM | [27] > 100 µM | [28] > 100 µM | [29] 33 µM | [33] > 42.8 µM | [34] > 56.8 µM | [36] 23.8 µM | [38] 28.7 µM | [39] 26.6 µM | [40] > 78.2 µM | [41] 25.5 µM | [42] 42 µM | [43] 23.5 µM | [44] > 41.5 µM | [45] > 100 µM | [46] > 89.5 µM | [47] 33.1 µM | [48] > 59 µM | [49] > 73.5 µM | [50] 53.3 µM | [51] 18.3 µM | [53] > 93.8 µM | [56] 18.1 µM | [57] > 100 µM | [58] > 84.1 µM | [59] 37.6 µM
0.144 µM: [13]

Cc1ccc([N+](=O)[O-])cc1S(=O)(=O)Nc1ccc(C(=O)/C=C/c2cccs2)cc1
inactive: [1] 18.4 µM | [2] 15.3 µM | [3] 91.6 µM | [4] 29.4 µM | [5] 18.7 µM | [6] 16.2 µM | [8] 24.1 µM | [9] 23.3 µM | [10] 20.1 µM | [11] 18.5 µM | [12] 18.2 µM | [14] 28.3 µM | [15] 22.1 µM | [16] 27.9 µM | [17] 18.9 µM | [18] 36.3 µM | [19] 36.6 µM | [20] 29 µM | [21] 16.6 µM | [22] 20.7 µM | [23] 20.1 µM | [24] 15.7 µM | [25] 16.3 µM | [26] 17.6 µM | [27] 25.2 µM | [28] 22.2 µM | [29] 27.4 µM | [30] 22.5 µM | [31] 20.2 µM | [32] 51.5 µM | [33] 19.2 µM | [34] 24.9 µM | [35] 20.8 µM | [36] 22.5 µM | [37] 31.5 µM | [38] 37.4 µM | [39] 21.1 µM | [40] 20.7 µM | [41] 17.7 µM | [42] 32 µM | [43] 32.7 µM | [44] 27.2 µM | [45] 23.1 µM | [46] 20.6 µM | [47] 16.9 µM | [48] 44.1 µM | [49] 24.2 µM | [50] 21.5 µM | [51] 19.3 µM | [52] 18.9 µM | [53] 22.4 µM | [54] 25.6 µM | [55] 56.2 µM | [57] 20.5 µM | [58] 16.3 µM | [59] 20 µM
active: [7] 0.271 µM
23.4 µM: [13]
